Earlier results on one compound are cited in patent US8097606B2, “Antiglucocorticoids for the treatment of catatonia” (Corcept Therapeutics, Inc., priority 2003, dated 2012).

As to `CC#C[C@]1(O)CC[C@H]2[C@@H]3CCC4=CC(=O)CCC4=C3[C@@H](c3ccc(N(C)C)cc3)C[C@@]21C` [mifepristone, 17-β-hydroxy-11-β-(4-dimethyl-aminophenyl)-17-α-(1-propynyl)-estra-4,9-dien-3-one], the “share of the daily dose excreted in the urine” value is recorded as “less than 0.5%”.
